Test results published in US3989835A, “Method of using 6-substituted amino phenyl-2,3,5,6-tetra-hydro[2,1-b]thiazoles for controlling gastrointestinal nematodes” (American Cyanamid Company, priority 1974, dated 1976).
Values joined by “and” are separate entries in the source; they are usually repeats but may differ in a detail not shown here. Identical values can stand only once. Like-named read-outs stand apart in the source and are kept apart here.

What was measured:
in vivo [1] = conditions: for Approx. LD50 /ED50: chemotherapeutic index, mouse oral, N. dubius; for LD50: mouse, in vivo, po; for Dead/Total: mice
From the text: Data on the acute oral toxicity to mice of various single oral doses of the above compounds and several analogs were obtained by conventional procedures, (Table IX hereinafter).

in vivo [2] = conditions: dog
Description: (§1) Dogs infected with mature adult whipworms Trichuris vulpis were treated with various single or double doses of unsubstituted or substituted tetramisole analogs by the oral or subcutaneous route (Table XI hereinafter). Whipworms passed in the feces were collected for several days, and the whipworms still present determined at necropsy. Percent efficacy was determined in these "critical" tests. […] Trichuris is a type of nematode refactory to treatment with most prior anthelmintics at well tolerated doses. Taxonomically allied nematodes, e.g., Trichinella and Capillaria are also refractory to most anthelmintics.

Trichuris vulpis = experiment: Oral or subcutaneous activity vs. mature Trichuris vulpis in dogs (critical test); format: in vivo
Description: as §1

Nematospiroides dubius = experiment: Anthelmintic efficacy against N. dubius in mice, single oral dose; format: in vivo, Nematospiroides dubius (in albino female mice); conditions: for ED50 / inhibition in vivo at 1.25 mg/kg / inhibition in vivo at 2 mg/kg / inhibition in vivo at 4 mg/kg / inhibition in vivo at 5 mg/kg / inhibition in vivo at 10 mg/kg: Heligmosomoides polygyrus; for inhibition in vivo at 1.25 mg/kg: single oral dose 1.25 mg./Kg.; for inhibition in vivo at 1.25 mg/kg / inhibition in vivo at 2 mg/kg / inhibition in vivo at 4 mg/kg / inhibition in vivo at 5 mg/kg / inhibition in vivo at 10 mg/kg: molar-adjusted, read-out: Percent Nematospiroides Activity; for inhibition in vivo at 2 mg/kg: single oral dose 2.0 mg./Kg.; for inhibition in vivo at 4 mg/kg: single oral dose 4.0 mg./Kg.; for inhibition in vivo at 5 mg/kg: single oral dose 5.0 mg./Kg.; for inhibition in vivo at 10 mg/kg: single oral dose 10 mg./Kg.
Description: Albino female mice are each inoculated with about 20 infectious larvae of Nematospiroides dubius. This nematode is a representative of the economical important trichostrongylis worms of ruminants and other hosts, and of nematodes in general. Twenty-two days after inoculation, groups of four randomly selected mice containing adult N. dubius are given single oral doses of test compounds dissolved or suspended in 0.4 ml. of water per 20 gram mouse. At 26 or 27 days after inoculation, treated mice and in each test four randomly selected groups of untreated mice are necropsied. The number of worms in the small intestine of each mouse are determined by microscopic examination. Average worm numbers for each treated group and for the untreated controls are computed and the percent efficacy determined by the customary formula:
(Average Worms in Control - Average Worms in Treated)/(Average Worms in Control) X 100.

helminths = conditions: prior art compounds; cited from earlier work
whipworms = conditions: prior art compounds, especially in dogs; cited from earlier work
[3] = Approx. LD50, mouse oral, Table IX
[4] = LD50, mice, adjusted to molar equivalents of tetramisole free base
[5] = oral 5 Mg./Kg., based on total worms in all dogs
[6] = po, as Base, single oral dose, mice, > indicates inactive at dose shown, read-out: Approx. ED50
[7] = po, mouse oral, Table IX, read-out: Approx. ED50 vs. N. dubius
[8] = single oral dose 10 mg./kg., N. dubius, mice

With Cl.Cl.Nc1cccc(C2CN3CCSC3=N2)c1 (racemic) [dl-m-aminotetramisole, 6-(m-Aminophenyl)-2,3,5,6-tetrahydroimidazo[2,1-b]thiazole Dihydrochloride] the “Approx. LD50 /ED50” value (in vivo [1]; Table IX) was 15, the LD50 (in vivo [1]; [3]) was 15 mg/kg and the LD50 (in vivo [1]; [4]) was roughly 20 mg/kg. For the same compound, the Dead/Total (in vivo [1]; single oral dose 4-5 Mg./Kg.) was 0/8, the Dead/Total (in vivo [1]; single oral dose 10 Mg./Kg.) was 2/29 and the Dead/Total (in vivo [1]; single oral dose 15 Mg./Kg.) was 7/14. For the same compound, the Dead/Total (in vivo [1]; single oral dose 20 Mg./Kg.) was 10/12, the Dead/Total (in vivo [1]; single oral dose 40 Mg./Kg.) was 4/4 and the MTD (in vivo [2]; po) was 7.5 mg/kg. For the same compound, the MTD (in vivo [2]; sc) was 5 mg/kg, the “% Efficacy SC” value (Trichuris vulpis; SC 2.5 Mg./Kg.) was 92% and the “% Efficacy SC” value (Trichuris vulpis; SC 5 Mg./Kg.) was 100%. The “% Efficacy Orally” value (Trichuris vulpis; oral 2.5 Mg./Kg.) was 99%, the “% Efficacy Orally” value (Trichuris vulpis; [5]) was 98% and the ED50 (Nematospiroides dubius; [6]) was 1 mg/kg. It also gave an ED50 (Nematospiroides dubius; [7]) of 1 mg/kg, an ED50 (Nematospiroides dubius; po, read-out: ED50 (approximate dose which removes 50% of the worms), N. dubius in mice, single oral dose) of roughly 1 mg/kg and an inhibition in vivo at 1.25 mg/kg (Nematospiroides dubius; po) of 57%. The inhibition in vivo at 2 mg/kg (Nematospiroides dubius; po) was 92%, the inhibition in vivo at 4 mg/kg (Nematospiroides dubius; po) was 100% and the inhibition in vivo at 5 mg/kg (Nematospiroides dubius; po) was 100%. For the same compound, the inhibition in vivo at 10 mg/kg (Nematospiroides dubius; po) was 100%, the “superiority over tetramisole at dose required to attain 85 - 88% efficacy” value (Nematospiroides dubius; N. dubius in mice) was “approximately eightfold superiority” and the activity in words (Nematospiroides dubius; N. dubius in mice, oral) was “unusually high activity”. For the same compound, the “activity relative to tetramisole” value (Nematospiroides dubius; from ED50s against N. dubius in mice) was “approximately nine times as active as tetramisole”, the activity in words (Nematospiroides dubius; single dose oral ED50 against N. dubius in mice) was “unexpected high activity” and the “Average % Efficacy” value (Nematospiroides dubius; single oral dose 0.5 mg./kg.) was 5%. For the same compound, the “% Efficacy per Group” value (Nematospiroides dubius; single oral dose 0.5 mg./kg., Dihydrochloride) was 2% and 6% and 8%, the “Average % Efficacy” value (Nematospiroides dubius; single oral dose 1.00 mg./kg.) was 50% and the “Average % Efficacy” value (Nematospiroides dubius; single oral dose 1.25 mg./kg.) was 81%. The “% Efficacy per Group” value (Nematospiroides dubius; single oral dose 1.25 mg./kg., Dihydrochloride) was 80% and 82%, the “Average % Efficacy” value (Nematospiroides dubius; single oral dose 2.0 mg./kg.) was 85% and the “% Efficacy per Group” value (Nematospiroides dubius; single oral dose 2.0 mg./kg., Dihydrochloride) was 77% and 78% and 82% and 83% and 88% and 92% and 98%. The “% Efficacy per Group” value (Nematospiroides dubius; single oral dose 4 mg./kg.) was 100%, the “Average % Efficacy” value (Nematospiroides dubius; single oral dose 4 mg./kg.) was 100% and the “% Efficacy per Group” value (Nematospiroides dubius; single oral dose 5 mg./kg.) was 100%. For the same compound, the “Average % Efficacy” value (Nematospiroides dubius; single oral dose 5 mg./kg.) was 100%, the “% Efficacy per Group” value (Nematospiroides dubius; [8]) was 100% and the “Average % Efficacy” value (Nematospiroides dubius; [8]) was 100%.
For c1ccc(C2CN3CCSC3=N2)cc1 (racemic) [dl-tetramisole, dl-6-phenyl-2,3,5,6-tetrahydroimidazo[2,1-b]thiazole, reference compound], the “activity against helminths in words” value (helminths) is given as “highly effective against most helminths”, the “activity against whipworms in words” value (whipworms) is given as “not sufficiently active against whipworms, especially in dogs” and the “oral dose at which inactive (% Efficacy Orally column)” value (Trichuris vulpis; > means inactive at dose shown, oral) is given as greater than 10 mg/kg. The “% Efficacy SC” value (Trichuris vulpis; SC 10 Mg./Kg., listed as dl H) was 2%, the ED50 (Nematospiroides dubius; read-out: ED50 (approximate dose which removes 50% of the worms), N. dubius in mice, single oral dose) was roughly 9 mg/kg and the ED50 (Nematospiroides dubius; as Base, single oral dose, mice, > indicates inactive at dose shown, read-out: Approx. ED50) was 9 mg/kg. For the same compound, the ED50 (Nematospiroides dubius; mouse oral, Table IX, read-out: Approx. ED50 vs. N. dubius) was 9 mg/kg, the “Average % Efficacy” value (Nematospiroides dubius; single oral dose 6 mg./kg.) was 7% and the “% Efficacy per Group” value (Nematospiroides dubius; single oral dose 8 mg./kg.) was 28% and 33% and 39%. The “Average % Efficacy” value (Nematospiroides dubius; single oral dose 8 mg./kg.) was 33%, the “Average % Efficacy” value (Nematospiroides dubius; [8]) was 70% and the “% Efficacy per Group” value (Nematospiroides dubius; single oral dose 12 mg./kg.) was 60% and 62% and 68% and 73%. For the same compound, the “Average % Efficacy” value (Nematospiroides dubius; single oral dose 12 mg./kg.) was 66%, the “% Efficacy per Group” value (Nematospiroides dubius; single oral dose 16 mg./kg.) was 74% and 91% and 92% and 94% and the “Average % Efficacy” value (Nematospiroides dubius; single oral dose 16 mg./kg.) was 88%. The “% Efficacy per Group” value (Nematospiroides dubius; single oral dose 20 mg./kg.) was 96% and 98% and 99% and 100% and the “Average % Efficacy” value (Nematospiroides dubius; single oral dose 20 mg./kg.) was 98%.
In the case of O=CNc1cccc(C2CN3CCSC3=N2)c1 (racemic) [m-NH--HCO dl, 3'-(2,3,5,6-Tetrahydroimidazo[2,1-b-]thiazol-6-yl)-formanilide], the “Approx. LD50 /ED50” value (in vivo [1]; Table IX) is reported as 10, the LD50 (in vivo [1]; [3]) is reported as 30 mg/kg and the LD50 (in vivo [1]; [4]) is reported as roughly 30 mg/kg. For the same compound, the Dead/Total (in vivo [1]; single oral dose 4-5 Mg./Kg.) was 0/8, the Dead/Total (in vivo [1]; single oral dose 10 Mg./Kg.) was 0/4 and the Dead/Total (in vivo [1]; single oral dose 20 Mg./Kg.) was 1/10. For the same compound, the Dead/Total (in vivo [1]; single oral dose 40 Mg./Kg.) was 12/13, the MTD (in vivo [2]; po) was 7.5 mg/kg and the MTD (in vivo [2]; sc) was greater than 5 mg/kg. The “% Efficacy Orally” value (Trichuris vulpis; oral 1.25 Mg./Kg.) was 21%, the “% Efficacy Orally” value (Trichuris vulpis; oral 2.5 Mg./Kg.) was 83% and the “% Efficacy Orally” value (Trichuris vulpis; [5]) was 100%. The ED50 (Nematospiroides dubius; [6]) was 3 mg/kg, the ED50 (Nematospiroides dubius; [7]) was 3 mg/kg and the inhibition in vivo at 4 mg/kg (Nematospiroides dubius; po) was 79%. For the same compound, the inhibition in vivo at 10 mg/kg (Nematospiroides dubius; po) was 97%.
In the case of O=CNc1cccc(C2CN3CCSC3=N2)c1 (stereo not drawn) [HNCHO l-], the LD50 (in vivo [1]; [4]) is reported as roughly 30 mg/kg, the MTD (in vivo [2]; po) is reported as 2.5 mg/kg and the “% Efficacy Orally” value (Trichuris vulpis; oral 1.25 Mg./Kg.) is reported as 46%. For the same compound, the “% Efficacy Orally” value (Trichuris vulpis; oral 2.5 Mg./Kg.) was 100%, the inhibition in vivo at 1.25 mg/kg (Nematospiroides dubius; po) was 61% and the inhibition in vivo at 2 mg/kg (Nematospiroides dubius; po) was 72%. The inhibition in vivo at 5 mg/kg (Nematospiroides dubius; po) was 95% and the inhibition in vivo at 10 mg/kg (Nematospiroides dubius; po) was 100%.
